Experimental findings from ChEMBL document CHEMBL1140053, “Discovery of antimycobacterial spiro-piperidin-4-ones: an atom economic, stereoselective synthesis, and biological intervention” (J Med Chem, 2008) are described below.

pIC50: −log10 of the molar value. ≈ marks a conversion by molar mass, not a printed value.

The test system of test [1] is Mycobacterium tuberculosis. As to the kind of experiment: Antimycobacterial activity against Mycobacterium tuberculosis H37Rv by agar dilution method. Type of test: functional. (In agar dilution the substance is mixed into plates at graded concentrations.)
The subject of test [2] is Mycolicibacterium smegmatis. Briefly: Antimycobacterial activity against Mycobacterium smegmatis MC2 by agar dilution method. Type of test: functional.
Another test concerns Vero. Briefly: Cytotoxicity against african green monkey Vero cells after 72 hrs by MTT assay. As to conditions: Chlorocebus sabaeus. The class given is cell-based. (In general: Tetrazolium dyes change colour on reduction, which living cells bring about.)

What is called MIC is the lowest concentration that inhibits growth of the organism. `CN1C/C(=C\c2ccc(Cl)cc2)C(=O)[C@]2(C1)[C@@H](c1ccc(Cl)cc1)[C@@H]1CCCN1[C@@]21C(=O)Nc2ccccc21` (racemic): the results for the minimal inhibitory concentration (MIC) in test [1] and in test [2] were 22.7 mg/L (≈ 40.7 µM) and 90.9 mg/L (≈ 163 µM), respectively.

For the compound `CN1C/C(=C\c2ccccc2)C(=O)[C@]2(C1)[C@@H](c1ccccc1)CN(C)[C@@]21C(=O)Nc2ccccc21` (racemic), the minimal inhibitory concentration (MIC) in test [1] turned out to be 13.5 mg/L (≈ 29.1 µM); in test [2] it was 54 mg/L (≈ 116 µM).

In general, pIC50 refers to the IC50 on a negative log10 scale, so that one unit is a factor of ten. For `COc1ccc(/C=C2\CN(C)C[C@@]3(C2=O)[C@@H](c2ccc(OC)cc2)[C@H](c2ccccc2)N[C@@]32C(=O)Nc3ccccc32)cc1` (racemic), the figures for the minimal inhibitory concentration (MIC) in test [1] and in test [2] were 0.67 mg/L (≈ 1.14 µM) and 1.33 mg/L (≈ 2.27 µM), respectively. The same compound showed a pIC50 in the test with Vero of 3.97.

Regarding `CN1C/C(=C\c2ccccc2)C(=O)[C@]2(C1)[C@@H](c1ccccc1)[C@@H]1CCCN1[C@@]21C(=O)Nc2ccccc21` (racemic), the minimal inhibitory concentration (MIC) in test [1] worked out at 25.6 mg/L (≈ 52.2 µM); in test [2] it was 102 mg/L (≈ 209 µM).

In the case of `CN1C/C(=C\c2ccccc2Cl)C(=O)[C@]2(C1)[C@@H](c1ccccc1Cl)CN(C)[C@@]21C(=O)Nc2ccccc21` (racemic), the MIC in test [1] was 0.17 mg/L (≈ 0.319 µM); in test [2] it was 1.47 mg/L (≈ 2.76 µM). This compound showed a negative logarithm of the IC50 (pIC50) in the test with Vero of 3.93.

`CN1C/C(=C\c2cccc3ccccc23)C(=O)[C@]2(C1)[C@@H](c1cccc3ccccc13)CN(C)[C@@]21C(=O)Nc2ccccc21` (racemic): the figures for the minimum inhibitory concentration (MIC) in test [1] and in test [2] were 11.1 mg/L (≈ 19.7 µM) and 22.2 mg/L (≈ 39.4 µM), respectively.

Turning to `CN1C/C(=C\c2ccco2)C(=O)[C@]2(C1)[C@@H](c1ccco1)[C@H](c1ccccc1)N[C@@]21C(=O)Nc2ccccc21` (racemic), the MIC in test [1] amounted to 24.8 mg/L (≈ 49 µM); in test [2], 49.5 mg/L (≈ 97.9 µM).

In the case of `COc1ccccc1/C=C1\CN(C)C[C@@]2(C1=O)[C@@H](c1ccccc1OC)CN(C)[C@@]21C(=O)Nc2ccccc21` (racemic), the values for the MIC in test [1] and in test [2] were 0.36 mg/L (≈ 0.688 µM) and 2.98 mg/L (≈ 5.69 µM), respectively. The compound also showed a pIC50 in the test with Vero of 3.92.

As to `CN1C/C(=C\c2ccccc2Cl)C(=O)[C@]2(C1)[C@@H](c1ccccc1Cl)[C@@H]1CCCN1[C@@]21C(=O)Nc2ccccc21` (racemic), the MIC in test [1] came out at 0.35 mg/L (≈ 0.627 µM); in test [2], 5.69 mg/L (≈ 10.2 µM). This compound also gave a pIC50 in the test on Vero of 3.94.

Regarding `CN1C/C(=C\c2ccco2)C(=O)[C@]2(C1)[C@@H](c1ccco1)CN(C)[C@@]21C(=O)Nc2ccccc21` (racemic), the minimum inhibitory concentration (MIC) in test [1] was determined as 1.76 mg/L (≈ 3.97 µM); in test [2], 0.88 mg/L (≈ 1.98 µM). In the test with Vero, this compound showed a negative-log IC50 (pIC50) of 3.85.

Turning to `CN1C/C(=C\c2cccc(F)c2)C(=O)[C@]2(C1)[C@@H](c1cccc(F)c1)CN(C)[C@@]21C(=O)Nc2ccccc21` (racemic), the MIC in test [1] is 1.56 mg/L (≈ 3.12 µM); in test [2], 6.27 mg/L (≈ 12.6 µM). Moreover, the negative logarithm of the IC50 (pIC50) in the test on Vero was 3.90.

As to `COc1ccccc1/C=C1\CN(C)C[C@@]2(C1=O)[C@@H](c1ccccc1OC)[C@H](c1ccccc1)N[C@@]21C(=O)Nc2ccccc21` (racemic), the MIC in test [1] and in test [2] was 1.33 mg/L (≈ 2.27 µM) in each case. The same compound had a negative-log IC50 (pIC50) in the test on Vero of 3.97.

Turning to `CN1C/C(=C\c2ccc(F)cc2)C(=O)[C@]2(C1)[C@@H](c1ccc(F)cc1)[C@@H]1CCCN1[C@@]21C(=O)Nc2ccccc21` (racemic), the results for the MIC in test [1] and in test [2] were 2.97 mg/L (≈ 5.65 µM) and 23.8 mg/L (≈ 45.3 µM), respectively. This compound gave a negative logarithm of the IC50 (pIC50) in the test on Vero of 3.92.

For the compound `Cc1ccccc1/C=C1\CN(C)C[C@@]2(C1=O)[C@@H](c1ccccc1C)[C@@H]1CCCN1[C@@]21C(=O)Nc2ccccc21` (racemic), the MIC stood at 12.1 mg/L (≈ 23.4 µM) in test [1] and 24.2 mg/L (≈ 46.7 µM) in test [2].

Take `CN1C/C(=C\c2ccccc2)C(=O)[C@]2(C1)[C@@H](c1ccccc1)[C@H](c1ccccc1)N[C@@]21C(=O)Nc2ccccc21` (racemic): the MIC in test [1] is 0.74 mg/L (≈ 1.41 µM); in test [2], 2.97 mg/L (≈ 5.65 µM). The compound also showed a pIC50 in the test on Vero of 3.92.

`CN1C/C(=C\c2cccc(F)c2)C(=O)[C@]2(C1)[C@@H](c1cccc(F)c1)[C@@H]1CCCN1[C@@]21C(=O)Nc2ccccc21` (racemic): the MIC in test [1] turned out to be 5.96 mg/L (≈ 11.3 µM); in test [2], 23.8 mg/L (≈ 45.3 µM).

`Cc1ccc(/C=C2\CN(C)C[C@@]3(C2=O)[C@@H](c2ccc(C)cc2)[C@H](c2ccccc2)N[C@@]32C(=O)Nc3ccccc32)cc1` (racemic): the minimum inhibitory concentration (MIC) in test [1] amounted to 0.71 mg/L (≈ 1.28 µM); in test [2] it was 2.82 mg/L (≈ 5.09 µM). The pIC50 in the test on Vero is 3.95.

Take `Cc1ccccc1/C=C1\CN(C)C[C@@]2(C1=O)[C@@H](c1ccccc1C)[C@H](c1ccccc1)N[C@@]21C(=O)Nc2ccccc21` (racemic): the MIC turned out to be 2.82 mg/L (≈ 5.09 µM) in test [1] and 11.3 mg/L (≈ 20.4 µM) in test [2]. In the test with Vero, this compound had a pIC50 of 3.95.

`O=C(O)c1cn(C2CC2)c2cc(N3CCNCC3)c(F)cc2c1=O` [CIPROFLOXACIN] had an MIC in test [2] of 2.35 mg/L (≈ 7.09 µM).

Regarding `CN1C/C(=C\c2ccc(Cl)cc2Cl)C(=O)[C@]2(C1)[C@@H](c1ccc(Cl)cc1Cl)[C@@H]1CCCN1[C@@]21C(=O)Nc2ccccc21` (racemic), the MIC was 19.9 mg/L (≈ 31.8 µM) in test [1] and 79.7 mg/L (≈ 127 µM) in test [2].

For the compound `COc1ccc(/C=C2\CN(C)C[C@@]3(C2=O)[C@@H](c2ccc(OC)cc2)[C@@H]2CCCN2[C@@]32C(=O)Nc3ccccc32)cc1` (racemic), the results for the MIC in test [1] and in test [2] were 5.7 mg/L (≈ 10.4 µM) and 45.5 mg/L (≈ 82.8 µM), respectively.

Consider `CN1C/C(=C\c2ccc(F)cc2)C(=O)[C@]2(C1)[C@@H](c1ccc(F)cc1)CN(C)[C@@]21C(=O)Nc2ccccc21`, for which the minimum inhibitory concentration (MIC) in test [1] came out at 6.27 mg/L (≈ 12.6 µM); in test [2] it was 50.1 mg/L (≈ 100 µM).

Take `COc1ccccc1/C=C1\CN(C)C[C@@]2(C1=O)[C@@H](c1ccccc1OC)[C@@H]1CCCN1[C@@]21C(=O)Nc2ccccc21` (racemic): the figures for the MIC in test [1] and in test [2] were 0.71 mg/L (≈ 1.29 µM) and 2.84 mg/L (≈ 5.17 µM), respectively. The same compound showed a pIC50 in the test with Vero of 3.94.

Take `CN1C/C(=C\c2cccc(F)c2)C(=O)[C@]2(C1)[C@@H](c1cccc(F)c1)[C@H](c1ccccc1)N[C@@]21C(=O)Nc2ccccc21` (racemic): the minimal inhibitory concentration (MIC) worked out at 2.78 mg/L (≈ 4.95 µM) in test [1] and 5.58 mg/L (≈ 9.94 µM) in test [2]. In the test on Vero, this compound had a pIC50 of 3.95.

As for `Cc1ccc(/C=C2\CN(C)C[C@@]3(C2=O)[C@@H](c2ccc(C)cc2)CN(C)[C@@]32C(=O)Nc3ccccc32)cc1` (racemic), the minimum inhibitory concentration (MIC) turned out to be 6.37 mg/L (≈ 13 µM) in test [1] and 50.9 mg/L (≈ 104 µM) in test [2].

With `Cc1ccc(/C=C2\CN(C)C[C@@]3(C2=O)[C@@H](c2ccc(C)cc2)[C@@H]2CCCN2[C@@]32C(=O)Nc3ccccc32)cc1` (racemic), the MIC in test [1] stood at 12.1 mg/L (≈ 23.4 µM); in test [2], 24.2 mg/L (≈ 46.7 µM).

For `CN1C/C(=C\c2ccco2)C(=O)[C@]2(C1)[C@@H](c1ccco1)[C@@H]1CCCN1[C@@]21C(=O)Nc2ccccc21` (racemic), the minimum inhibitory concentration (MIC) in test [1] was determined as 53.3 mg/L (≈ 114 µM); in test [2], 107 mg/L (≈ 227 µM).

`CN1C/C(=C\c2cccs2)C(=O)[C@]2(C1)[C@@H](c1cccs1)[C@@H]1CCCN1[C@@]21C(=O)Nc2ccccc21` (racemic): the minimal inhibitory concentration (MIC) turned out to be 0.38 mg/L (≈ 0.757 µM) in test [1] and 3.11 mg/L (≈ 6.2 µM) in test [2]. The pIC50 in the test with Vero was 3.90.

Consider `CN1C/C(=C\c2cccs2)C(=O)[C@]2(C1)[C@@H](c1cccs1)[C@H](c1ccccc1)N[C@@]21C(=O)Nc2ccccc21` (racemic), for which the minimum inhibitory concentration (MIC) in test [1] and in test [2] was 11.6 mg/L (≈ 21.6 µM) in each case.

Regarding `CN1C/C(=C\c2ccc(Cl)cc2)C(=O)[C@]2(C1)[C@@H](c1ccc(Cl)cc1)[C@H](c1ccccc1)N[C@@]21C(=O)Nc2ccccc21` (racemic), the MIC in test [1] worked out at 5.27 mg/L (≈ 8.86 µM); in test [2] it was 42.1 mg/L (≈ 70.8 µM).

Regarding `CN1C/C(=C\c2cccc3ccccc23)C(=O)[C@]2(C1)[C@@H](c1cccc3ccccc13)[C@H](c1ccccc1)N[C@@]21C(=O)Nc2ccccc21` (racemic), the minimal inhibitory concentration (MIC) came out at 5.01 mg/L (≈ 8.01 µM) in test [1] and 20 mg/L (≈ 32 µM) in test [2].
